These are literature values, as cited in patent publication US6645913B2, “Adjuvant composition” (Cognis Corporation, priority 1999, dated 2003).

For this data set the following is noted: glyphosate in acid form.

For the compound `O=C(O)CNCP(=O)(O)O` [glyphosate, N-phosphonomethylglycine], the water solubility result is listed as “about 1.2%”.
